Laboratory results as given in patent US20240132478A1, “COCRYSTAL” (Syndesi Therapeutics SA, priority 2020, published 2024).
Entries after “also recorded” stand apart in the source; their conditions may differ. Where two headings read alike, the source gives them in different places.

Legend:
Type in all cases: physicochemical
[1] = Storage stability at elevated temperature and humidity (XRPD and HPLC purity after storage)
[2] = as above; remark: listed apart in the source
Experimental: Bruker AXS D8 Advance: XRPD diffractograms were collected on a Bruker D8 diffractometer using Cu Kα radiation (40 kV, 40 mA) and a θ-2θ goniometer fitted with a Ge monochromator. The incident beam passes through a 2.0 mm divergence slit followed by a 0.2 mm anti-scatter slit and knife edge. The diffracted beam passes through an 8.0 mm receiving slit with 2.5° Soller slits followed by the Lynxeye Detector. The software used for data collection and analysis was Diffrac Plus XRD Commander and Diffrac Plus EVA respectively. Samples were run under ambient conditions as flat plate specimens using powder as received. The sample was prepared on a polished, zero-background (510) silicon wafer by gently pressing onto the flat surface or packed into a cut cavity. The sample was rotated in its own plane. The details of the data collection method are: • Angular range: 2 to 42° 2θ • Step size: 0.05° 2θ • Collection time: 0.5 s/step (total collection time: 6.40 min)
Purity analysis was performed on an Agilent Ip 100/Infinity 111260 series system equipped with a diode array detector and using OpenLAB software. The full method details are provided below:
The three potential cocrystals were characterised using DSC, 1H NMR, TGA and by evaluating their stability with XRPD after 7 or 8 days of being stored at 40° C./75% RH. All three cocrystals were unchanged by XRPD after storage at 40° C./75% RH and none had significant amounts of solvent present (Table 28). The 4 HBA cocrystal appeared to have a similar melt to the starting material (ca. 85° C.). […] All initially appeared to have a 1:1 stoichiometry. […]

[3] = Solubility assessment in solvents (visual); settings: for solubility: read-out: Observations from solubility assessment
Experimental: API (25 mg) was dispensed to a PLC vial with a magnetic stirrer. At room temperature an aliquot of solvent was added (5 vol.=125 μL) and stirred at 25° C. for at least 5 minutes. A visual assessment was made. Solutions were held at 25° C. and suspensions were placed at 50° C. with stirring for at least 5 minutes. A visual assessment was made and if a suspension was observed, further aliquots of solvent were added at 25° C. and the above steps repeated until a maximum of 50 volumes were added (Table 7).

[4] = Differential Scanning Calorimetry (DSC); settings: * = multiple thermal events
Experimental: TA Instruments Q2000: DSC data were collected on a TA Instruments Q2000 equipped with a 50 position auto sampler. Typically, 0.5 3 mg of each sample, in a pin-holed aluminium pan, was heated at 10° C./min from 25° C. to 235° C. A purge of dry nitrogen at 50 mlmL/min was maintained over the sample. The instrument control software was Advantage for Q Series and Thermal Advantage and the data were analysed using Universal Analysis or TRIOS.
TA Instruments Discovery DSC: DSC data were also collected on a TA Instruments Discovery DSC equipped with a 50 position auto-sampler. Typically, 0.5 3 mg of each sample, in a pin-holed aluminium pan, was heated at 10° C./min from 25° C. to 235° C. A purge of dry nitrogen at 50 mlmL/min was maintained over the sample. The instrument control software was TRIOS and the data were analysed using TRIOS or Universal Analysis.

[5] = Gravimetric Vapour Sorption (GVS) moisture sorption isotherm
Experimental: Sorption isotherms were obtained using a SMS DVS Intrinsic moisture sorption analyser, controlled by DVS Intrinsic Control software. The sample temperature was maintained at 25° C. by the instrument controls. The humidity was controlled by mixing streams of dry and wet nitrogen, with a total flow rate of 200 ml/min. The relative humidity was measured by a calibrated Rotronic probe (dynamic range of 1.0-100% RH), located near the sample. The weight change, (mass relaxation) of the sample as a function of % RH was constantly monitored by a microbalance (accuracy ±0.005 mg). Typically, 5-30 mg of sample was placed in a tared mesh stainless steel basket under ambient conditions. The sample was loaded and unloaded at 40% RH and 25° C. (typical room conditions). A moisture sorption isotherm was performed as outlined below (2 scans per complete cycle). The standard isotherm was performed at 25° C. at 10% RH intervals over a 0-90% RH range. Typically, a double cycle (4 scans) was carried out. Data analysis was carried out within Microsoft Excel using the DVS Analysis Suite.
The sample was recovered after completion of the isotherm and re-analysed by XRPD.

For `O=C1C[C@H](c2cc(F)c(F)c(F)c2)CN1Cn1ncnc1Cl` [API, (4R)-1-[(5-chloro-1H-1,2,4-triazol-1-yl)methyl]-4-(3,4,5-trifluorophenyl)pyrrolidin-2-one], the XRPD after storage ([1]; 25° C./97% RH) was “XRPD - Unchanged”, the Purity after storage ([1]; 25° C./97% RH, 7 days) was “Purity - 7 days: 99.5%, 14 days: 99.5%” and the Purity after storage ([1]; 25° C./97% RH, 14 days) was “Purity - 7 days: 99.5%, 14 days: 99.5%”. For the same molecule, the Purity after storage ([1]; 40° C./75% RH, 7 days) was “Purity - 7 days: 99.5%, 14 days: 99.5% XRPD -”, the Purity after storage ([1]; 40° C./75% RH, 14 days) was “Purity - 7 days: 99.5%, 14 days: 99.5% XRPD -” and the Stability after storage ([1]; 14 days at 25° C./75% RH) was “stable”. The Stability after storage ([1]; 14 days at 40° C./97% RH) was “stable”, the XRPD after storage ([2]; 40° C./75% RH) was “Unchanged” and the “Stability at 25° C./97% RH and 40° C./75% RH” value ([2]; XRPD after storage) was “Stable,”. The solubility ([3]; 1,4-dioxane, 25 °C, organic solvent or mixture, thermodynamic from solid, 1,4-Dioxane, 5 vol, 25° C.) was > 200 mg/mL, the solubility ([3]; 2-methyl-1-propanol, 25 °C, organic solvent or mixture, thermodynamic from solid, 2-methyl-1-propanol, 5 vol, 25° C.) was < 200 mg/mL and the solubility ([3]; 2-methyl-1-propanol, 50 °C, organic solvent or mixture, thermodynamic from solid, 2-methyl-1-propanol, 5 vol, 50° C.) was > 200 mg/mL. For the same molecule, the solubility ([3]; 2-propanol, 25 °C, organic solvent or mixture, thermodynamic from solid, 2-Propanol, 5 vol, 25° C.) was < 200 mg/mL, the solubility ([3]; 2-propanol, 50 °C, organic solvent or mixture, thermodynamic from solid, 2-Propanol, 5 vol, 50° C.) was > 200 mg/mL and the solubility ([3]; IPA:water (9:1 v/v), 25 °C, organic solvent or mixture, thermodynamic from solid, IPA:Water (9:1 v/v), 5 vol, 25° C.) was < 200 mg/mL. For the same molecule, the solubility ([3]; IPA:water (9:1 v/v), 50 °C, organic solvent or mixture, thermodynamic from solid, IPA:Water (9:1 v/v), 5 vol, 50° C.) was > 200 mg/mL, the solubility ([3]; IPAC, 25 °C, organic solvent or mixture, thermodynamic from solid, IPAC, 5 vol, 25° C.) was > 200 mg/mL and the solubility ([3]; MEK, 25 °C, organic solvent or mixture, thermodynamic from solid, MEK, 5 vol, 25° C.) was > 200 mg/mL. For the same molecule, the solubility ([3]; MIBK, 25 °C, organic solvent or mixture, thermodynamic from solid, MIBK, 5 vol, 25° C.) was > 200 mg/mL, the solubility ([3]; TBME, 25 °C, organic solvent or mixture, thermodynamic from solid, TBME, 5 vol, 25° C.) was < 200 mg/mL and the solubility ([3]; TBME, 25 °C, organic solvent or mixture, thermodynamic from solid, TBME, 10 vol, 25° C.) was < 100 mg/mL. For the same molecule, the solubility ([3]; TBME, 50 °C, organic solvent or mixture, thermodynamic from solid, TBME, 5 vol, 50° C.) was < 200 mg/mL, the solubility ([3]; TBME, 50 °C, organic solvent or mixture, thermodynamic from solid, TBME, 10 vol, 50° C.) was > 100 mg/mL and the solubility ([3]; acetone, 25 °C, organic solvent or mixture, thermodynamic from solid, Acetone, 5 vol, 25° C.) was > 200 mg/mL. For the same molecule, the solubility ([3]; acetone:water (95:5 v/v), 25 °C, organic solvent or mixture, thermodynamic from solid, Acetone:water (95:5 v/v), 5 vol, 25° C.) was < 200 mg/mL, the solubility ([3]; acetone:water (95:5 v/v), 50 °C, organic solvent or mixture, thermodynamic from solid, Acetone:water (95:5 v/v), 5 vol, 50° C.) was > 200 mg/mL and the solubility ([3]; acetonitrile, 25 °C, organic solvent or mixture, thermodynamic from solid, Acetonitrile, 5 vol, 25° C.) was > 200 mg/mL. For the same molecule, the solubility ([3]; diethyl ether, 25 °C, organic solvent or mixture, thermodynamic from solid, Diethyl ether, 5 vol, 25° C.) was < 200 mg/mL, the solubility ([3]; diethyl ether, 25 °C, organic solvent or mixture, thermodynamic from solid, Diethyl ether, 10 vol, 25° C.) was < 100 mg/mL and the solubility ([3]; diethyl ether, 25 °C, organic solvent or mixture, thermodynamic from solid, Diethyl ether, 50 vol, 25° C.) was > 20 mg/mL. The solubility ([3]; ethanol, 25 °C, organic solvent or mixture, thermodynamic from solid, Ethanol, 5 vol, 25° C.) was < 200 mg/mL, the solubility ([3]; ethanol, 50 °C, organic solvent or mixture, thermodynamic from solid, Ethanol, 5 vol, 50° C.) was > 200 mg/mL and the solubility ([3]; ethanol:water (9:1 v/v), 25 °C, organic solvent or mixture, thermodynamic from solid, Ethanol:Water (9:1 v/v), 5 vol, 25° C.) was > 200 mg/mL. The solubility ([3]; ethyl acetate, 25 °C, organic solvent or mixture, thermodynamic from solid, Ethyl acetate, 5 vol, 25° C.) was > 200 mg/mL, the “Solubility in organic solvents” value ([3]; most of the organic solvents tested, water, diethyl ether and n-heptane are the exceptions) was “good solubility” and the solubility ([3]; n-heptane, 25 °C, organic solvent or mixture, thermodynamic from solid, n-heptane, 5 vol, 25° C.) was < 200 mg/mL. For the same molecule, the solubility ([3]; n-heptane, 50 °C, organic solvent or mixture, thermodynamic from solid, n-heptane, 5 vol, 50° C.) was < 200 mg/mL, the solubility ([3]; n-heptane, 50 °C, organic solvent or mixture, thermodynamic from solid, n-heptane, 50 vol, 50° C.) was < 20 mg/mL and the solubility ([3]; nitromethane, 25 °C, organic solvent or mixture, thermodynamic from solid, Nitromethane, 5 vol, 25° C.) was > 200 mg/mL. The solubility ([3]; tetrahydrofuran, 25 °C, organic solvent or mixture, thermodynamic from solid, Tetrahydrofuran, 5 vol, 25° C.) was > 200 mg/mL, the solubility ([3]; toluene, 25 °C, organic solvent or mixture, thermodynamic from solid, Toluene, 5 vol, 25° C.) was < 200 mg/mL and the solubility ([3]; toluene, 50 °C, organic solvent or mixture, thermodynamic from solid, Toluene, 5 vol, 50° C.) was > 200 mg/mL. The solubility ([3]; water, 25 °C, water, thermodynamic from solid, Water, 5 vol, 25° C.) was < 200 mg/mL, the solubility ([3]; water, 25 °C, water, thermodynamic from solid, Water, 10 vol, 25° C.) was < 100 mg/mL and the solubility ([3]; water, 25 °C, water, thermodynamic from solid, Water, 50 vol, 25° C.) was < 20 mg/mL. For the same molecule, the solubility ([3]; water, 50 °C, water, thermodynamic from solid, Water, 5 vol, 50° C.) was < 200 mg/mL, the solubility ([3]; water, 50 °C, water, thermodynamic from solid, Water, 10 vol, 50° C.) was < 100 mg/mL and the solubility ([3]; water, 50 °C, water, thermodynamic from solid, Water, 50 vol, 50° C.) was < 20 mg/mL. For the same molecule, the “Melting point (onset)” value [4] was 85.3 °C, the Hygroscopicity ([5]; in words, by GVS) was “not hygroscopic” and the “XRPD post-GVS” value ([5]; sample re-analysed by XRPD after isotherm) was “no form change observed; also recorded: Unchanged by XRPD post-GVS”.
